From patent US9617256B2 (priority 2007, dated 2017)
Values after ≈ are worked out from the molar mass of the structure shown. Where two headings read alike, the source gives them in different places.

Assays:
AECO001 (ATCC25922) = experiment: MIC broth microdilution, AECO001; type: cell-based, E. coli; conditions: for MIC: Escherichia coli; for Ratio of MICs on AECO001 [Cpd (A = —CHCH3NH2)/Cpd (A = —C(CH3)2NH2)]: MIC of paired compound with A = —CHCH3NH2 divided by MIC of compound with A = —C(CH3)2NH2, n=2 data, pairs identical except for the A moiety
Experimental: (§1) Bacterial isolates were cultivated from −70° C. frozen stocks by overnight passages at 35° C. in ambient air on Mueller-Hinton agar (Beckton Dickinson, Franklin Lakes, N.J.). Clinical isolates tested were obtained from various geographically diverse hospitals in the US and abroad (Focus Diagnostics, Herndon, Va. and JMI, North Liberty, Iowa). Quality control strains were from the American Type Culture Collection (ATCC; Rockville, Md.). Additional primary panel strains were generated using standard molecular biology techniques.
(§2) Minimum Inhibitory Concentrations (MICs) were determined by the broth microdilution method in accordance with the Clinical and Laboratory Standards Institute (CLSI) guidelines. In brief, organism suspensions were adjusted to a 0.5 McFarland standard to yield a final inoculum between 3×10^5 and 7×10^5 colony-forming units (CFU)/mL. Drug dilutions and inocula were made in sterile, cation adjusted Mueller-Hinton Broth (Beckton Dickinson). An inoculum volume of 100 μL was added to wells containing 100 μL of broth with 2-fold serial dilutions of drug. All inoculated microdilution trays were incubated in ambient air at 35° C. for 18-24 hours. […] Performance of the assay was monitored by the use of laboratory quality-control strains and levofloxacin, a compound with a defined MIC spectrum, in accordance with CLSI guidelines.
(§3) *AECO001 is ATCC25922, AECO063 is ATCC25922 bearing an acrAB mutation, APAE001 is ATCC27853, APAE006 is a strain of P. aeruginosa in which all efflux pumps are inactivated, APAE006+PMBN indicates MICs with the indicated strain in the presence of 8 micrograms per milliliter of polymyxin B nonapeptide, AABA1060 is a clinical isolate of Acinetobacter baumannii, ASAU001 is a laboratory strain of S. aureus (ATCC29213).

[1] = test system: AECO063 (ATCC25922 bearing an acrAB mutation); experiment: microbe, parasite or virus in culture; type: cell-based, E. coli; conditions: Escherichia coli, ATCC25922, read-out: MIC AECO063
Experimental: as §1, §2, §3

APAE001 (ATCC27853) = experiment: MIC broth microdilution, APAE001; type: cell-based, P. aeruginosa; conditions: Pseudomonas aeruginosa, ATCC27853, read-out: MIC APAE001, APAE001 (ATCC27853)
Experimental: as §1, §2, §3

[2] = test system: APAE006 (strain of P. aeruginosa in which all efflux pumps are inactivated); experiment: microbe, parasite or virus in culture; type: cell-based; conditions: Pseudomonas aeruginosa, read-out: MIC APAE006, APAE006, all efflux pumps inactivated
Experimental: as §1, §2, §3

[3] = test system: APAE006 in the presence of 8 micrograms per milliliter of polymyxin B nonapeptide; type: cell-based, P. aeruginosa; conditions: APAE006 with 8 micrograms per milliliter polymyxin B nonapeptide
Experimental: as §1, §2, §3

[4] = test system: AABA1060 (clinical isolate of Acinetobacter baumannii); experiment: MIC broth microdilution, AABA1060; type: cell-based; conditions: Acinetobacter baumannii, read-out: MIC AABA1060
Experimental: as §1, §2, §3

[5] = test system: ASAU001 (laboratory strain of S. aureus, ATCC29213); experiment: MIC broth microdilution, ASAU001; type: cell-based; conditions: Staphylococcus aureus, ATCC29213, read-out: MIC ASAU001
Experimental: as §1, §2, §3

[6] = ATCC25922, read-out: MIC AECO001
[7] = ATCC25922, read-out: MIC AECO001 HSA AGP

Structure (SMILES)	MIC (AECO001 (ATCC25922); [6]) [µg/mL]	MIC (AECO001 (ATCC25922); [7]) [µg/mL]	MIC [1] [µg/mL]	MIC (APAE001 (ATCC27853)) [µg/mL]	MIC [2] [µg/mL]	MIC APAE006 + PMBN [3]	MIC [4] [µg/mL]	MIC [5] [µg/mL]	Ratio of MICs on AECO001 [Cpd (A = —CHCH3NH2)/Cpd (A = —C(CH3)2NH2)] (AECO001 (ATCC25922))
C[C@@H](N)[C@H](NC(=O)c1ccc(C#C/C=C/c2ccc(F)cc2)cc1)C(=O)NO [Example 106-6]	< 2	16 to 64 (≈ 41.9 to 168 µM)	< 2	2 to 16 (≈ 5.24 to 41.9 µM)	< 2	A (MIC's of 2.0 μg/mL or less = A)	2 to 16 (≈ 5.24 to 41.9 µM)	16 to 64 (≈ 41.9 to 168 µM)	
CC(C)(N)[C@H](NC(=O)c1ccc(C#CC#CC2CCCC2)cc1)C(=O)NO [Example 91-14]	< 2	2 to 16 (≈ 5.44 to 43.5 µM)	< 2	< 2	< 2	A (MIC's of 2.0 μg/mL or less = A)	< 2	2 to 16 (≈ 5.44 to 43.5 µM)	3.3
C[C@@H](N)[C@H](NC(=O)c1ccc(C#CC#Cc2cccs2)cc1)C(=O)NO [Example 88-12]	< 2	2 to 16 (≈ 5.44 to 43.5 µM)	< 2	< 2	< 2	A (MIC's of 2.0 μg/mL or less = A)	< 2	2 to 16 (≈ 5.44 to 43.5 µM)	
CC(C)(N)[C@H](NC(=O)c1ccc(C#CC#CCC2CCCC2)cc1)C(=O)NO [Example 91-23]	< 2	2 to 16 (≈ 5.24 to 41.9 µM)	< 2	2 to 16 (≈ 5.24 to 41.9 µM)	< 2	A (MIC's of 2.0 μg/mL or less = A)	2 to 16 (≈ 5.24 to 41.9 µM)	2 to 16 (≈ 5.24 to 41.9 µM)	
CC(C)(N)[C@H](NC(=O)c1ccc(C#CC#Cc2ccc(CN3CCS(=O)(=O)CC3)cc2)cc1)C(=O)NO [Example 86-7]	< 2	2 to 16 (≈ 3.83 to 30.6 µM)	< 2	2 to 16 (≈ 3.83 to 30.6 µM)	< 2	A (MIC's of 2.0 μg/mL or less = A)	< 2	16 to 64 (≈ 30.6 to 122 µM)	
C[C@@H](N)[C@H](NC(=O)c1ccc(C#CC#Cc2ccc(CN3CCS(=O)(=O)CC3)cc2)cc1)C(=O)NO [Example 86-6]	< 2	2 to 16 (≈ 3.93 to 31.5 µM)	< 2	2 to 16 (≈ 3.93 to 31.5 µM)	< 2	A (MIC's of 2.0 μg/mL or less = A)	2 to 16 (≈ 3.93 to 31.5 µM)	16 to 64 (≈ 31.5 to 126 µM)	
C[C@@H](O)[C@H](NC(=O)c1ccc(C#CC#Cc2ccncc2)cc1)C(=O)NO [Example 137-19]	< 2	2 to 16 (≈ 5.5 to 44 µM)	< 2	2 to 16 (≈ 5.5 to 44 µM)	< 2	A (MIC's of 2.0 μg/mL or less = A)	16 to 64 (≈ 44 to 176 µM)	16 to 64 (≈ 44 to 176 µM)	
CC(C)CC#CC#Cc1ccc(C(=O)N[C@H](C(=O)NO)C(C)(C)N)cc1 [Example 91-22]	< 2	2 to 16 (≈ 5.63 to 45 µM)	< 2	2 to 16 (≈ 5.63 to 45 µM)	< 2	A (MIC's of 2.0 μg/mL or less = A)	2 to 16 (≈ 5.63 to 45 µM)	2 to 16 (≈ 5.63 to 45 µM)	
C[C@@H](N)[C@H](NC(=O)c1ccc(C#CC#CCCCO)cc1)C(=O)NO [Example 137-25]	16 to 64 (≈ 46.6 to 186 µM)	16 to 64 (≈ 46.6 to 186 µM)	2 to 16 (≈ 5.82 to 46.6 µM)	16 to 64 (≈ 46.6 to 186 µM)	< 2	A (MIC's of 2.0 μg/mL or less = A)	16 to 64 (≈ 46.6 to 186 µM)	16 to 64 (≈ 46.6 to 186 µM)	
CCOCc1ccc(C#CC#Cc2ccc(C(=O)N[C@H](C(=O)NO)[C@@H](C)O)cc2)cc1 [Example 82-20]	< 2	2 to 16 (≈ 4.76 to 38.1 µM)	< 2	2 to 16 (≈ 4.76 to 38.1 µM)	< 2	A (MIC's of 2.0 μg/mL or less = A)	2 to 16 (≈ 4.76 to 38.1 µM)	16 to 64 (≈ 38.1 to 152 µM)	
CC(C)(N)[C@H](NC(=O)c1ccc(C#Cc2ccccc2)cc1)C(=O)NO [Example 133-6]	< 2	< 2	< 2	< 2	< 2	A (MIC's of 2.0 μg/mL or less = A)	< 2	2 to 16 (≈ 5.69 to 45.5 µM)	20.8
